According to ChEMBL document CHEMBL1201862, “PubChem BioAssay data set” (2004):
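Assay format: 96-well plates, 48-hour exposure. GI50 is the concentration that inhibits growth by half.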 Active and inactive are the calls of the source. Cut-off read from the data, not from the text of the source: active = GI50 up to about 1.1 µM and inactive = higher.

Key:
Assay in all cases: NCI anticancer screen, dose series, 48 h
IGROV-1 = tested on: IGROV-1
EKVX = tested on: EKVX
SK-MEL-2 = tested on: SK-MEL-2
SK-MEL-5 = tested on: SK-MEL-5
SNB-75 = tested on: SNB-75
K562 = tested on: K562
LOX IMVI = tested on: LOX IMVI
HCT-116 = tested on: HCT-116
OVCAR-8 = tested on: OVCAR-8
NCI-H460 = tested on: NCI-H460
OVCAR-5 = tested on: OVCAR-5
SW-620 = tested on: SW-620
MDA-MB-435 = tested on: MDA-MB-435
SF-539 = tested on: SF-539
NCI-H23 = tested on: NCI-H23
HCC 2998 = tested on: HCC 2998
HCT-15 = tested on: HCT-15
HT-29 = tested on: HT-29
RPMI-8226 = tested on: RPMI-8226
NCI-H226 = tested on: NCI-H226

| SMILES | GI50 (IGROV-1) | GI50 (EKVX) | GI50 (SK-MEL-2) | GI50 (SK-MEL-5) | GI50 (SNB-75) | GI50 (K562) | GI50 (LOX IMVI) | GI50 (HCT-116) | GI50 (OVCAR-8) | GI50 (NCI-H460) | GI50 (OVCAR-5) | GI50 (SW-620) | GI50 (MDA-MB-435) | GI50 (SF-539) | GI50 (NCI-H23) | GI50 (HCC 2998) | GI50 (HCT-15) [µM] | GI50 (HT-29) | GI50 (RPMI-8226) | GI50 (NCI-H226) |
| --- | --- | --- | --- | --- | --- | --- | --- | --- | --- | --- | --- | --- | --- | --- | --- | --- | --- | --- | --- | --- |
| O=C1c2ccccc2C(=O)c2c(NC(=O)C(Cl)CCl)cccc21 (stereo not given) | 5.02 µM (inactive) | 19.4 µM (inactive) | 5.09 µM (inactive) | 9.66 µM (inactive) | 10.5 µM (inactive) | 0.197 µM (active) | 2.44 µM (inactive) | 10.9 µM (inactive) | 5.56 µM (inactive) | 6.32 µM (inactive) | 15.6 µM (inactive) | 2.86 µM (inactive) | 7.11 µM (inactive) | 4.83 µM (inactive) | 4.03 µM (inactive) | 13.6 µM (inactive) | 6.65 | 3.05 µM (inactive) | 0.628 µM (active) | 17.5 µM (inactive) |
| Cn1c2c(c3ccccc31)CCN1C(=O)CN(C(=O)C3CCCCC3)CC21 (stereo not given) | > 100 µM (inactive) | > 100 µM (inactive) | > 100 µM (inactive) | > 100 µM (inactive) | > 100 µM (inactive) | > 100 µM (inactive) | > 100 µM (inactive) | > 100 µM (inactive) | > 100 µM (inactive) | > 100 µM (inactive) | > 100 µM (inactive) | > 100 µM (inactive) | > 100 µM (inactive) | > 100 µM (inactive) | > 100 µM (inactive) | > 100 µM (inactive) | > 100 | > 100 µM (inactive) | > 100 µM (inactive) | > 100 µM (inactive) |
| CCCCCCCCCC[C@@H](O)[C@H]1CC[C@H]([C@H]2CC[C@H]([C@H](O)CCCCCCCCCC[C@@H]3CC(CC(C)=O)C(=O)O3)O2)O1 (stereo not given in full) | > 34.4 µM (inactive) | 7.43 µM (inactive) | > 40.9 µM (inactive) | 0.0929 µM (active) | > 50 µM (inactive) | 0.374 µM (active) | 1.12 µM (inactive) | 0.112 µM (active) | 7.66 µM (inactive) | 0.254 µM (active) | > 50 µM (inactive) | 26.2 µM (inactive) | > 39.1 µM (inactive) | 17.3 µM (inactive) | 1.7 µM (inactive) | 41.3 µM (inactive) | 28.3 | 4.41 µM (inactive) | 0.231 µM (active) | 23.8 µM (inactive) |
| C=C1C(=O)O[C@@H]2CC(CO)=C([C@@H](C)CCCO)[C@@H](OC(=O)/C(C)=C\C)[C@H]12 | 14.5 µM (inactive) | 13.7 µM (inactive) | 20.9 µM (inactive) | 13.9 µM (inactive) | 27.2 µM (inactive) | 5.22 µM (inactive) | 8.39 µM (inactive) | 8.07 µM (inactive) | 20.6 µM (inactive) | 9.98 µM (inactive) | 28.5 µM (inactive) | 14.7 µM (inactive) | 15.8 µM (inactive) | 22.2 µM (inactive) | 13.3 µM (inactive) | 15.3 µM (inactive) | 13.7 | 12.9 µM (inactive) | 5.05 µM (inactive) | 28.4 µM (inactive) |
| N#CC(NC12CC3CC(CC(C3)C1)C2)c1ccc2c(c1)OCO2 (stereo not given) | > 100 µM (inactive) | > 100 µM (inactive) | > 100 µM (inactive) | > 100 µM (inactive) | > 100 µM (inactive) | > 100 µM (inactive) | > 100 µM (inactive) | > 100 µM (inactive) | > 100 µM (inactive) | > 100 µM (inactive) | > 100 µM (inactive) | > 100 µM (inactive) | > 100 µM (inactive) | > 100 µM (inactive) | > 100 µM (inactive) | > 100 µM (inactive) | > 100 | > 100 µM (inactive) | > 100 µM (inactive) | > 100 µM (inactive) |
| COc1cc(O)c2c(=O)c3cccc(C)c3[nH]c2c1 | > 10 µM (inactive) | > 10 µM (inactive) | > 10 µM (inactive) | > 10 µM (inactive) | 6.62 µM (inactive) | > 10 µM (inactive) | 8.75 µM (inactive) | > 10 µM (inactive) | > 10 µM (inactive) | > 10 µM (inactive) | > 10 µM (inactive) | > 10 µM (inactive) | > 10 µM (inactive) | > 10 µM (inactive) | > 10 µM (inactive) | > 10 µM (inactive) | > 10 | > 10 µM (inactive) | > 10 µM (inactive) | > 10 µM (inactive) |
| COc1cc2oc3cc(=O)cc4oc(-c5ccccc5)cc(c2c2c1CCC(c1ccccc1)O2)c43 (stereo not given) | 33.1 µM (inactive) | 65.6 µM (inactive) | 33 µM (inactive) | 20.4 µM (inactive) | 79.1 µM (inactive) | 33 µM (inactive) | 31.9 µM (inactive) | 29.2 µM (inactive) | 50 µM (inactive) | 27.5 µM (inactive) | 56 µM (inactive) | 67.1 µM (inactive) | 22.7 µM (inactive) | 24.5 µM (inactive) | 62.8 µM (inactive) | 34.2 µM (inactive) | 20.4 | 20.9 µM (inactive) | 3.34 µM (inactive) | > 100 µM (inactive) |
| C[C@@H](C[C@@H](O)[C@H](O)C(C)(C)O)[C@H]1CC=C2[C@]3(C)[C@H](O)C[C@H]4C(C)(C)[C@H](O)CC[C@]4(C)[C@H]3CC[C@@]21C | 16.3 µM (inactive) | 12.3 µM (inactive) | 14 µM (inactive) | 14.2 µM (inactive) | 17.6 µM (inactive) | 15.7 µM (inactive) | 15.8 µM (inactive) | 16.1 µM (inactive) | 16.1 µM (inactive) | 15.8 µM (inactive) | 19.2 µM (inactive) | 17.3 µM (inactive) | 16.4 µM (inactive) | 18.1 µM (inactive) | 17.6 µM (inactive) | 17.3 µM (inactive) | 14.7 | 13.4 µM (inactive) | 13.9 µM (inactive) | 20.7 µM (inactive) |
| CCOC(=O)/C(C(=O)c1ccc[nH]1)=C1/CCCN1C | > 100 µM (inactive) | > 100 µM (inactive) | > 100 µM (inactive) | > 100 µM (inactive) | > 100 µM (inactive) | > 100 µM (inactive) | > 100 µM (inactive) | > 100 µM (inactive) | > 100 µM (inactive) | > 100 µM (inactive) | > 100 µM (inactive) | > 100 µM (inactive) | > 100 µM (inactive) | > 100 µM (inactive) | > 100 µM (inactive) | > 100 µM (inactive) | > 100 | > 100 µM (inactive) | > 100 µM (inactive) | > 100 µM (inactive) |
| O=C(/C=C/c1cccc(Oc2ccccc2)c1)NCc1ccc(C(=O)NCCc2ccccc2)cc1 | > 100 µM (inactive) | > 100 µM (inactive) | > 100 µM (inactive) | > 100 µM (inactive) | 29.4 µM (inactive) | > 100 µM (inactive) | > 100 µM (inactive) | > 100 µM (inactive) | 24.8 µM (inactive) | > 100 µM (inactive) | > 100 µM (inactive) | > 100 µM (inactive) | > 100 µM (inactive) | 14.8 µM (inactive) | 43.7 µM (inactive) | > 100 µM (inactive) | > 100 | 16.9 µM (inactive) | > 100 µM (inactive) | > 100 µM (inactive) |
| CCCNC(=S)N/N=C1\C(=O)Nc2ccccc21 | > 100 µM (inactive) | > 100 µM (inactive) | > 100 µM (inactive) | > 100 µM (inactive) | > 100 µM (inactive) | > 100 µM (inactive) | > 100 µM (inactive) | > 100 µM (inactive) | > 100 µM (inactive) | > 100 µM (inactive) | > 100 µM (inactive) | > 100 µM (inactive) | > 100 µM (inactive) | > 100 µM (inactive) | > 100 µM (inactive) | > 100 µM (inactive) | > 100 | > 100 µM (inactive) | > 100 µM (inactive) | > 100 µM (inactive) |
| CCOC(=O)C1=CC(C)(C(=O)OCC)Nc2c(nc(SC)n(C)c2=O)N1 (stereo not given) | > 10 µM (inactive) | > 10 µM (inactive) | > 10 µM (inactive) | > 10 µM (inactive) | > 10 µM (inactive) | > 10 µM (inactive) | > 10 µM (inactive) | > 10 µM (inactive) | > 10 µM (inactive) | > 10 µM (inactive) | > 10 µM (inactive) | > 10 µM (inactive) | > 10 µM (inactive) | > 10 µM (inactive) | > 10 µM (inactive) | > 10 µM (inactive) | > 10 | > 10 µM (inactive) | > 10 µM (inactive) | > 10 µM (inactive) |
| CC1CCN(CC(=O)N2c3ccccc3Sc3cc4ccccc4cc32)CC1 | > 100 µM (inactive) | > 100 µM (inactive) | > 100 µM (inactive) | > 100 µM (inactive) | > 100 µM (inactive) | > 100 µM (inactive) | > 100 µM (inactive) | 49.7 µM (inactive) | > 100 µM (inactive) | 37.5 µM (inactive) | > 100 µM (inactive) | > 100 µM (inactive) | > 100 µM (inactive) | > 100 µM (inactive) | > 100 µM (inactive) | 67.6 µM (inactive) | > 100 | 48 µM (inactive) | > 100 µM (inactive) | > 100 µM (inactive) |
| Cn1c2ccccc2c(=NNc2ccc(S(N)(=O)=O)cc2)c2ccccc21 | 17.7 µM (inactive) | 12 µM (inactive) | 10.5 µM (inactive) | 8.24 µM (inactive) | 15.1 µM (inactive) | 2.49 µM (inactive) | 9.29 µM (inactive) | 16.7 µM (inactive) | 16.2 µM (inactive) | 9.18 µM (inactive) | 24.4 µM (inactive) | 21.8 µM (inactive) | 16.2 µM (inactive) | 22.5 µM (inactive) | 16 µM (inactive) | 14.9 µM (inactive) | 16.2 | 17.6 µM (inactive) | 9.35 µM (inactive) | 10.9 µM (inactive) |
